Results as given in patent US6831091B2, “Salt forms of 3-(4-bromo-2,6-difluoro-benzyloxy)-5-[3-(4-pyrrolidin-1-yl-butyl)-ureido]-isothiazole-4-carboxylic acid amide and method of production” (priority 2000, dated 2004).

Assays:
[1] = Hygroscopicity (water uptake at stated relative humidity); assay type: physicochemical; settings: for hygroscopicity relative to the mesylate salt: compared with mesylate salt; for water absorbed: 90% relative humidity
[2] = Stability in air / deliquescence; assay type: physicochemical; settings: can be used without deliquescence
[3] = Crystallinity (freedom from amorphous material); assay type: physicochemical; settings: i.e., substantially free of amorphous material
[4] = Conversion of crystal form in refluxing ethanol; assay type: physicochemical
[5] = Tendency of concentrated aqueous solution to form viscous mixtures upon standing; assay type: physicochemical
[6] = Sedative effect on dosing; assay type: in vivo; settings: low to moderate dosing
[7] = assay type: physicochemical; settings: for kinetic solubility relative to free base or hydrochloride: compared with free base or hydrochloride form

Which results are given for “3-(4-bromo-2,6-difluoro-benzyloxy)-5-[3-(4-pyrrolidin-1-yl-butyl)-ureido]-isothiazole-4-carboxylic acid amide hemi-citrate [Example 4]”?
Hygroscopicity ([1]; 87% relative RH): 0.43%; hygroscopicity relative to the mesylate salt [1]: less hygroscopic than the mesylate salt; stability in air [2]: more stable in air

For “3-(4-bromo-2,6-difluoro-benzyloxy)-5-[3-(4-pyrrolidin-1-yl-butyl)-ureido]-isothiazole-4-carboxylic acid amide hemi-succinate”, which “hygroscopic stability” value [1] is on record?
Its value is “substantially hygroscopically stable”.

What about the “crystallinity” value [3] of the same compound?
The value was “high crystallinity”.

For “3-(4-bromo-2,6-difluoro-benzyloxy)-5-[3-(4-pyrrolidin-1-yl-butyl)-ureido]-isothiazole-4-carboxylic acid amide hemi-succinate [Example 8]”, which Hygroscopicity ([1]; 30° C. and 90% RH, listed as Hemi-succinate crystal form A) is on record?
The Hygroscopicity was 0.6 % w/w.

And the Hygroscopicity ([1]; 90% relative RH)?
Its Hygroscopicity is 0.6%.

What about the water absorbed ([1]; listed as Form A hemi-succinate) of the same compound?
Its water absorbed is 0.6%.

Which Hygroscopicity ([1]; 30° C. and 90% RH, listed as Hemi-succinate crystal form B) does the source give for “3-(4-bromo-2,6-difluoro-benzyloxy)-5-[3-(4-pyrrolidin-1-yl-butyl)-ureido]-isothiazole-4-carboxylic acid amide hemi-succinate [Example 9]” here?
Its Hygroscopicity is 1.5 % w/w.

What about the Hygroscopicity ([1]; 90% relative RH) of the same compound?
The Hygroscopicity was 1.5%.

And the water absorbed ([1]; listed as Form B hemi-succinate)?
The water absorbed was 1.5%.

What about the “time for conversion of hemi-succinate form B into form A” value [4] of the same compound?
Its value is “less than 24 hours”.

For `Cl.NC(=O)c1c(OCc2c(F)cc(Br)cc2F)nsc1NC(=O)NCCCCN1CCCC1` [Example 2, 3-(4-bromo-2,6-difluoro-benzyloxy)-5-[3-(4-pyrrolidin-1-yl-butyl)-ureido]-isothiazole-4-carboxylic acid amide hydrochloride], which “hygroscopic stability” value [1] is on record?
The value was “substantially hygroscopically stable”.

What about the Hygroscopicity ([1]; 90% relative humidity at ambient temperature) of the same compound?
Its Hygroscopicity is 1 % (by weight).

What about the “crystallinity” value [3] of the same compound?
Its value is “high crystallinity”.

What about the “tendency for concentrated aqueous solution to form viscous mixtures upon standing” value [5] of the same compound?
The value was “low tendency”.

Which “hygroscopic stability” value [1] does the source give for `Br.NC(=O)c1c(OCc2c(F)cc(Br)cc2F)nsc1NC(=O)NCCCCN1CCCC1` [Example 3, 3-(4-bromo-2,6-difluoro-benzyloxy)-5-[3-(4-pyrrolidin-1-yl-butyl)-ureido]-isothiazole-4-carboxylic acid amide hydrobromide] here?
Its value is “substantially hygroscopically stable”.

And the Hygroscopicity ([1]; 87% relative RH)?
The Hygroscopicity was 0.1%.

And the “crystallinity” value [3]?
The value was “high crystallinity”.

And the “sedative effect” value [6]?
Its value is “mild sedative effect”.

And the “tendency for concentrated aqueous solution to form viscous mixtures upon standing” value [5]?
Its value is “low tendency”.

For `CC(=O)O.NC(=O)c1c(OCc2c(F)cc(Br)cc2F)nsc1NC(=O)NCCCCN1CCCC1` [Example 5, 3-(4-bromo-2,6-difluoro-benzyloxy)-5-[3-(4-pyrrolidin-1-yl-butyl)-ureido]-isothiazole-4-carboxylic acid amide acetate], which “crystallinity” value [3] is on record?
Its value is “high crystallinity”.

For `Cc1ccc(S(=O)(=O)O)cc1.NC(=O)c1c(OCc2c(F)cc(Br)cc2F)nsc1NC(=O)NCCCCN1CCCC1` [Example 6, 3-(4-bromo-2,6-difluoro-benzyloxy)-5-[3-(4-pyrrolidin-1-yl-butyl)-ureido]-isothiazole-4-carboxylic acid amide p-tosylate], which “kinetic solubility relative to free base or hydrochloride” value [7] is on record?
Its value is “greater kinetic solubility than the free base or hydrochloride form”.

And the Hygroscopicity ([1]; 87% relative RH)?
Its Hygroscopicity is −0.9%.

And the “hygroscopicity relative to the mesylate salt” value [1]?
The value was “less hygroscopic than the mesylate salt”.

What about the “stability in air” value [2] of the same compound?
Its value is “more stable in air”.

For `NC(=O)c1c(OCc2c(F)cc(Br)cc2F)nsc1NC(=O)NCCCCN1CCCC1.O=C(O)C(O)C(O)C(=O)O` [Example 7, 3-(4-bromo-2,6-difluoro-benzyloxy)-5-[3-(4-pyrrolidin-1-yl-butyl)-ureido]-isothiazole-4-carboxylic acid amide L-tartrate], which “kinetic solubility relative to free base or hydrochloride” value [7] is on record?
The value was “greater kinetic solubility than the free base or hydrochloride form”.

What about the Hygroscopicity ([1]; 100% RH) of the same compound?
The Hygroscopicity was 0.3%.

And the “hygroscopicity relative to the mesylate salt” value [1]?
Its value is “less hygroscopic than the mesylate salt”.

And the “stability in air” value [2]?
Its value is “more stable in air”.

For `CS(=O)(=O)O.NC(=O)c1c(OCc2c(F)cc(Br)cc2F)nsc1NC(=O)NCCCCN1CCCC1` [Example 10, 3-(4-bromo-2,6-difluoro-benzyloxy)-5-[3-(4-pyrrolidin-1-yl-butyl)-ureido]-isothiazole-4-carboxylic acid amide mesylate], which “kinetic aqueous solubility” value [7] is on record?
Its value is “rapid kinetic aqueous solubility”.

What about the “crystallinity” value [3] of the same compound?
The value was “high crystallinity”.
